Patent US20080200393A1, “Method and Composition For Treating Angiogenesis and For Preventing Cancer Progression and Metastasis Comprising a Prostate Secretory Protein (Psp94) Family Member” (Ambrillia Biopharma Inc., priority 2004, published 2008)
Where no end group is shown, it is not given here.

Assays:
[1] = test system: CD44; assay: CD44 cell surface shedding (Western blot of conditioned media); format: cell-based; details: serum-starved U-87, 300 ug/ml, 24 hours
Experimental: Decreased cell migration and adhesion on HA was observed when U-87 cells were pretreated with the PCK3145 derivative. This can be interpreted as either a potential downregulation of CD44 expression at the cell surface or by a potential cell surface shedding. The latter hypothesis was tested by incubating serum-starve U-87 cells for 24 hours with the PCK3145 derivative (300 ug/ml), a concentration known to antagonize MMP secretion. The conditioned media was then TCA-precipitated and Westernblotting an immunodetection for a 75 kDa immunoreactive protein using the anti-CD44 antibody was performed. […] This effect is also shown in parallel with MT1-MMP-transfected cells. Such effect has been already reported by many groups and is established as one of the MT1-MMP-mediated functions in the regulation of the ECM adhesion. […] This induction has subsequently been reproduced below. Altogether, these observations provide a rational for the diminished cell migration/adhesion to HA.

[2] = test system: ERK; assay: Induced ERK phosphorylation in HUVEC (Western blot); format: cell-based, Human
Experimental: Cell culture. Human umbilical vein endothelial cells (HUVEC) and pulmonary aortic smooth muscle cells (PASMC) were obtained from Clonetics and maintained in endothelial cell basal medium-2 (EBM-2; Clonetics) and smooth muscle medium-2 (SmGM-2; Clonetics), respectively. Cells were cultured at 37° C. under a humidified atmosphere containing 5% CO2. For experimental purposes, cells were plated in 8 100-mm plastic dishes at 5,000 cells/cm^2 and were grown to confluence before overnight serum starvation. Cells were treated with vehicle or with a PCK3145 derivative diluted in 0.1 N NaOH, and stimulated with 50-100 ng/ml VEGF or PDGF, with 10 ng/ml of bFGF (basic fibroblast growth factor) or with 1 μM S1P (sphingosine-1-phosphate).
Immunoprecipitation and immunoblotting procedures. After treatment, cells were washed once with phosphate-buffered saline (PBS) containing 1 mM sodium orthovanadate and were incubated in the same medium for 1 h at 4° C. The cells were solubilized on ice in lysis buffer (150 mM NaCl, 10 mM Tris-HCl, pH 7.4, 1 mM EDTA, 1 mM EGTA, 0.5% Nonidet P-40, 1% Triton X-100) containing 1 mM sodium orthovanadate. The cells were then scraped from the culture dishes and the resulting lysates were clarified by centrifugation at 10,000 g for 10 min; Protein concentrations were determined using the micro bicinchoninic acid method (Pierce). For immunoprecipitation studies, lysates were clarified by a 1 h incubation at 4° C. with a mixture of Protein A/Protein G Sepharose beads. After removal of the Sepharose beads by low-speed centrifugation, identical amounts of protein (200 μg) from each sample were transferred to fresh tubes and incubated in lysis buffer overnight at 4° C. in the presence of 2 μg/ml of specific antibodies. Immunocomplexes were collected by incubating the mixture with 25 μl (50% suspension) of Protein A- (rabbit primary antibody) or Protein G- (mouse primary antibody) Sepharose beads, for 2 h. Nonspecifically-bound material was removed by washing the beads three times in 1 ml of lysis buffer containing 1 mM sodium orthovanadate, and bound material was solubilized in 25 μl of two-fold concentrated Laemmli sample buffer (125 mM Tris-HCl (pH 6.8), 20% glycerol, 4% SDS, 10% β-mercaptoethanol, and 0.00125% bromphenol blue), boiled 5 min, and resolved by SDS-PAGE. The proteins were transferred onto polyvinylidene difluoride (PVDF) membranes, blocked 1 h at room temperature with Tris-buffered saline/Tween 20 (147 mM NaCl, 20 mM Tris/HCl, pH 7.5, and 0.1% Tween 20) containing 2% bovine serum albumin and incubated overnight at 4° C. with primary antibody. […] The immunoreactive bands were quantified by scanning densitometry (Molecular Dynamics).
VEGF is a strong activator of ERKs (Extracellular-signal-Regulated protein Kinases) 1 and 2 via VEGF receptor 2. In order to test the ability of the PCK3145 derivative in potentially antagonizing VEGF-mediated ERK phosphorylation, serum-starved quiescent endothelial cells (HUVEC) were incubated with vehicle (phosphate-buffered saline (PBS) pH 7.4) or PCK3145 derivative (300 μg/ml) for 24 h and then stimulated with VEGF, bFGF (basic Fibroblast Growth Factor) or S1P (sphingosine-1-phosphate). Cells were washed with PBS containing NaF/Na3VO4 and incubated in the same medium buffer for 1 h at 4° C. The cells were scraped from the culture dishes and the resulting lysates clarified by centrifugation. Western blotting and immunodetection using anti-phosphoERK and anti-ERK antibodies was then performed.

[3] = test system: MMP-9; assay: Western blot of MMP-9 in MatLyLu cell culture media; format: cell-based; details: MatLyLu cells, 100 ug/ml, 500 ug/ml and 1 mg/ml, 72 hrs
Experimental: A separate western blot experiment was performed in which MatLyLu cells were treated with 100 ug/ml, 500 ug/ml and 1 mg/ml of the PCK3145 derivative for 72 hrs. At the end of the experiment, the media were collected and concentrated 5 times using Amicon centrifugal filter devices (3500 molecular weight cut-off).
Twenty five microliters samples were separated on SDS-PAGE gel under reducing conditions using pre-cast gels of 4-12% Bis-Tris (Invitrogen). Following electrophoresis, the proteins were transferred on nitrocellulose membrane. Non-specific binding sites were blocked using 5% skimmed milk in 10 mM phosphate buffer saline (PBS) containing 0.05% Tween-20 for 1 hour at room temperature. The membrane was later incubated with a primary antibody (monoclonal, RDI-MMP-9abm-2A5) at a concentration of 1 ug/ml (in 10 mM PBS, containing 0.5% bovine serum albumin (BSA) and 0.05% Tween-20) for 3 hours at room temperature.
The membranes were washed three times in PBS (5 minutes each wash) to remove non-specific binding and they were incubated with the secondary antibody (Rabbit anti-mouse IgG horseradish peroxidase-conjugated (Dako no. 0260)) at a dilution of 1:5000 for one hour. Detection of specific MMP-9 protein was made by incubating the membrane in ECL™ reagent (electro-chemoluminescence, Roche) and exposing to the X-ray film.

EWQTDNCETCTCYET (cysteine pairing not given here) [PCK3145 derivative, PCK3145 derivative with acetylaminomethyl groups on the three cysteines]
CD44 cell surface shedding [1]: increased | extent of ERK phosphorylation by VEGF, dose-response [2]: gradually inhibit | ERK phosphorylation induced by S1P ([2]; 300 μg/ml, 24 h): not that induced by bFGF or S1P | ERK phosphorylation induced by VEGF ([2]; 300 μg/ml, 24 h): specific inhibitory effect | total amount of ERK ([2]; 300 μg/ml, 24 h): unaffected | VEGF-induced ERK phosphorylation, time-course ([2]; 3 and 24 hrs): necessity of a long term action | MMP-9 levels (western blot) [3]: dose-dependent reduction
